Test results published in article PMC12196264, “Design and Synthesis of Pyridine-Based Pyrrolo[2,3-d]pyrimidine Analogs as CSF1R Inhibitors: Molecular Hybridization and Scaffold Hopping Approach” (Pharmaceuticals, 2025).

What was measured:
[1] = MDCK permeability assay; assay type: in vitro ADME, canine; details: dog, MDCK monolayer
Description: Six selected compounds were assessed for metabolic stability (clearance) in mouse liver microsomes (MLM) and human liver microsomes (HLM), and apparent permeability (Papp) using a MDCK permeability assay. […] Although currently limited by solubility and permeability, its metabolic profile provides a starting point for targeted structural modifications aimed at overcoming these challenges.

[2] = Microsomal stability, human liver microsomes; assay type: in vitro ADME; details: human liver microsome
Description: The aqueous solubility of the compounds and metabolic stability under oxidative conditions was performed as described previously.

[3] = molecular target: CSF1R (Homo sapiens, UniProt P07333); test: CSF1R enzymatic inhibitory assay (TR-FRET LANCE Ultra); assay type: biochemical; details: single eight-point titrations, ATP 25 μM, R^2 of fit in parentheses
Description: The TR-FRET-based LANCE Ultra assay (Perkin Elmer, Waltham, MA, USA) was used to determine IC50 values for various CSF1R inhibitors. Kinase activity and inhibition in this assay was measured as previously reported. Scigilian Analyze software version 5.8.5.15 (Scigilian, Montreal, QC, Canada) was used.

[4] = molecular target: cKIT (Homo sapiens, UniProt P10721); test: KIT-WT LanthaScreen binding assay (Kd); details: single eight-point titrations, TR-FRET LanthaScreen Binding Assay; R^2 of fit in parentheses; read-out: Enzymatic Assay KIT (Kd)
Description: The TR-FRET-based LanthaScreen Binding Assay was performed to determine Kd values of synthesized derivatives against cKIT.
Subsequently, 8 µL of kinase anti-GST antibody mixture was added, followed by incubation at 4 °C for 30 min in a pre-cooled, humidified box to minimize edge effects. The reaction was initiated by adding 5 µL of tracer working solution and mixed on a Bioshake 5000 microplate shaker (Q Instruments, Jena, Germany). […] Kd values were calculated from sigmoidal dose-response curves using Scigilian Analyze software version 5.8.5.15 (Scigilian, Montreal, QC, Canada).

[5] = molecular target: MET (Homo sapiens, UniProt P08581); test: Kinase panel; assay type: biochemical
Description: (§1) Ta b l e S 1. Inhibition (%) by compound 14c towards di7erent kinases. Values are average of two
(§2) measurements at 1000 nM test concentration. The ATP concentration was equal to KM.
(§3) Kinase ATP conc. % inhibition

[6] = molecular target: Aurora A (Homo sapiens, UniProt O14965); test: Kinase panel; assay type: biochemical
Description: as §1, §2, §3

[7] = molecular target: JAK1 (Homo sapiens, UniProt P23458); test: Kinase panel; assay type: biochemical
Description: as §1, §2, §3

[8] = molecular target: FLT3 (Homo sapiens, UniProt P36888); test: Kinase panel; assay type: biochemical
FLT3, sequence (P36888 27-993, species assumed): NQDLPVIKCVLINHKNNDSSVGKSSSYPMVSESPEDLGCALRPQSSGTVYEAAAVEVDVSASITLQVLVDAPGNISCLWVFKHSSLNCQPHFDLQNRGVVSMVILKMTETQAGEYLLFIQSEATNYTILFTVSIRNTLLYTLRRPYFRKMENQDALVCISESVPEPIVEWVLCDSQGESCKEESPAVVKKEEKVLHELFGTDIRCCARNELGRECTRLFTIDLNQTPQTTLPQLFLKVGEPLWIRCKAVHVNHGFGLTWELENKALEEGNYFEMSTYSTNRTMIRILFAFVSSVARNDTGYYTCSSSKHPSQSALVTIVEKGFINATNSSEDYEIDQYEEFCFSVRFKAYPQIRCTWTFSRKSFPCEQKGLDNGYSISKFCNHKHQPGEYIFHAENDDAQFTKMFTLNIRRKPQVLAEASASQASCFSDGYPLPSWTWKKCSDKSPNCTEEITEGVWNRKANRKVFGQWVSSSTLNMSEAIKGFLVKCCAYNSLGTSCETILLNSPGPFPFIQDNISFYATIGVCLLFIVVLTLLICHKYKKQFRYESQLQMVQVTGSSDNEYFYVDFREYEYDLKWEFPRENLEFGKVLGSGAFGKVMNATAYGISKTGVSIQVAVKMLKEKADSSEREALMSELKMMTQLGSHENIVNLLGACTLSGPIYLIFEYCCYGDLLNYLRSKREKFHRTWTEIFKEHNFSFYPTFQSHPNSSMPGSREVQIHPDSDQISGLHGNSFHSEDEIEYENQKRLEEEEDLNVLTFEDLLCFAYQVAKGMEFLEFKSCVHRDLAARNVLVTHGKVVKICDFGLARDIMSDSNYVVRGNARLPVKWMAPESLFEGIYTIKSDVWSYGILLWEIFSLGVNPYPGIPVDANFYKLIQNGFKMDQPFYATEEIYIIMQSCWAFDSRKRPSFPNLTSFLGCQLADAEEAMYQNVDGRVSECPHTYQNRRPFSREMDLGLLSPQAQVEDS
Description: as §1, §2, §3

[9] = molecular target: PDGFRB (Homo sapiens, UniProt P09619); test: Kinase panel; assay type: biochemical; details: 1000 nM test concentration, ATP Km app, average of two measurements
PDGFRB, sequence (P09619 33-1106, species assumed): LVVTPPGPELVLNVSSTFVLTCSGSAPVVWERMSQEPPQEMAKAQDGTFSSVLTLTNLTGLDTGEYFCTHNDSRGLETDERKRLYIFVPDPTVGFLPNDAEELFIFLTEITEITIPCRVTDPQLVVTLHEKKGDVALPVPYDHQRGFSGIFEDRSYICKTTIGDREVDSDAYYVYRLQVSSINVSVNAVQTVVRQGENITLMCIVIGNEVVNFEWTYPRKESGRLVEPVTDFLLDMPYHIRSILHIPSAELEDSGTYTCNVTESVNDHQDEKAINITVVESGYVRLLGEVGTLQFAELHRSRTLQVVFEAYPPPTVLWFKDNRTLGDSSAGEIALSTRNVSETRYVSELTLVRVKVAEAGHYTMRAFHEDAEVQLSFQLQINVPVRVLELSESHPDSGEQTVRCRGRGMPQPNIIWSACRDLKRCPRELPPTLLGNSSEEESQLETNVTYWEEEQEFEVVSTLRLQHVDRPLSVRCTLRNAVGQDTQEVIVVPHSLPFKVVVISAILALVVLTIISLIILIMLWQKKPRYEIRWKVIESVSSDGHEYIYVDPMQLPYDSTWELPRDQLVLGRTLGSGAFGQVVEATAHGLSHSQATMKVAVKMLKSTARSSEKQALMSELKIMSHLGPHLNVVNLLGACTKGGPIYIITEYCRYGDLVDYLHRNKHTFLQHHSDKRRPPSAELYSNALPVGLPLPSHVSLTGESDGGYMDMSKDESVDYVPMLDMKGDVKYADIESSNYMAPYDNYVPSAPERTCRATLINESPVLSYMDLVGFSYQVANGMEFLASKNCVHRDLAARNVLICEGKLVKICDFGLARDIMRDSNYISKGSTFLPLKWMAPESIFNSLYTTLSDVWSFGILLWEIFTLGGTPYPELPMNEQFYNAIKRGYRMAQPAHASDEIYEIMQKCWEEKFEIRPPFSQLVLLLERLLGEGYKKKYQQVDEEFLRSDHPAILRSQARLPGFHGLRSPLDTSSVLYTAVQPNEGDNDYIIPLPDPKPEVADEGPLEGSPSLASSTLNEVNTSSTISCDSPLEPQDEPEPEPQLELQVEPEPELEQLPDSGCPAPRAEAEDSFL
Description: as §1, §2, §3

[10] = molecular target: MUSK (Homo sapiens, UniProt O15146); test: Kinase panel; assay type: biochemical
Description: as §1, §2, §3

[11] = molecular target: ITK (Homo sapiens, UniProt Q08881); test: Kinase panel; assay type: biochemical
ITK, sequence (Q08881 whole entry, species assumed): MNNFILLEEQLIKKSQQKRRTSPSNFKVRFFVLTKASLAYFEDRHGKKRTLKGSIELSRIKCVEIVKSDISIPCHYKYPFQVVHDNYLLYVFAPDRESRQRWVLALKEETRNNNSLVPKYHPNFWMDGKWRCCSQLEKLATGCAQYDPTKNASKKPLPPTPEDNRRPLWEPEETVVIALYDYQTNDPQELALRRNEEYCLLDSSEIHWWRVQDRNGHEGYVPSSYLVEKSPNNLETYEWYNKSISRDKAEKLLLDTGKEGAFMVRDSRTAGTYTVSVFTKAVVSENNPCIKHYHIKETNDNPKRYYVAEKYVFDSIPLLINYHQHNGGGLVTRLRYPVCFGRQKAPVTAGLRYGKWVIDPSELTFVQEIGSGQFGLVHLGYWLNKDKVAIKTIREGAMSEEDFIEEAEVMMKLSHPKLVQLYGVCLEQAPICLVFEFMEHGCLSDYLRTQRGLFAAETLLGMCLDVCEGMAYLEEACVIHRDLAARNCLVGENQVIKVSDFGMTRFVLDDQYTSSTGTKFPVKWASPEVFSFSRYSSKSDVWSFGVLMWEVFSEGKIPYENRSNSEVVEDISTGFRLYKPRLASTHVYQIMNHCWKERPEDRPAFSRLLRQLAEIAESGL
Description: as §1, §2, §3

[12] = molecular target: ABL1 (Homo sapiens, UniProt P00519); test: Kinase panel; assay type: biochemical
ABL1, sequence (P00519 whole entry, species assumed): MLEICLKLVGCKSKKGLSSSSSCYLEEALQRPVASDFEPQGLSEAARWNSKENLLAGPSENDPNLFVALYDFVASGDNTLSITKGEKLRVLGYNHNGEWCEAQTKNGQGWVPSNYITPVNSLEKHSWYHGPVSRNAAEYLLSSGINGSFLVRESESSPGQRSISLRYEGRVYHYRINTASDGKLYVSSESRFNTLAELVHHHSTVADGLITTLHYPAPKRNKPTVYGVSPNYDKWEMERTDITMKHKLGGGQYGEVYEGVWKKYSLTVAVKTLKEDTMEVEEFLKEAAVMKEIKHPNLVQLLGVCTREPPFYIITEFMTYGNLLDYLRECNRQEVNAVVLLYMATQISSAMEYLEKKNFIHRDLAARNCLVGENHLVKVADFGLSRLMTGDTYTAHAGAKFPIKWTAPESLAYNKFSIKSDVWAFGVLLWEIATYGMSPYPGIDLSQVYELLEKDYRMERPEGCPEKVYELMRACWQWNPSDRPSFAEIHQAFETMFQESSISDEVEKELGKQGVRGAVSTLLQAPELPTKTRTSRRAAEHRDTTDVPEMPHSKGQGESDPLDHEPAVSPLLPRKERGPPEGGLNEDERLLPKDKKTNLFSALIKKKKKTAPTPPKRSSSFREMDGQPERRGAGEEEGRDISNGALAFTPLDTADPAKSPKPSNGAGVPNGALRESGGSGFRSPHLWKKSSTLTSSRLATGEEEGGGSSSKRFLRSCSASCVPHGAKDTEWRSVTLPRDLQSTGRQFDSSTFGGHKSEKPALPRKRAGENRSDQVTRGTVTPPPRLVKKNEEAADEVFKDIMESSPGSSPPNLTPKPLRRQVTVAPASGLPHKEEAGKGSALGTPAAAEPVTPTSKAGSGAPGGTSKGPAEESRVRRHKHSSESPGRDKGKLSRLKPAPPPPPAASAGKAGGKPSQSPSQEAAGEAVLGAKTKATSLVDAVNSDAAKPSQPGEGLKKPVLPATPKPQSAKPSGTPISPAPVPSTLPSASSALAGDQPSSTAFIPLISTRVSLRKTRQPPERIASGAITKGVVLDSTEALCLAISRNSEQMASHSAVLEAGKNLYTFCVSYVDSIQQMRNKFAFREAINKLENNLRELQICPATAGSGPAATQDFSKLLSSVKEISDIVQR
Description: as §1, §2, §3

[13] = molecular target: CDK1 (Homo sapiens, UniProt P06493); test: Kinase panel; assay type: biochemical
Description: as §1, §2, §3

[14] = molecular target: CHEK1 (Homo sapiens, UniProt O14757); test: Kinase panel; assay type: biochemical
CHEK1, sequence (O14757 whole entry, species assumed): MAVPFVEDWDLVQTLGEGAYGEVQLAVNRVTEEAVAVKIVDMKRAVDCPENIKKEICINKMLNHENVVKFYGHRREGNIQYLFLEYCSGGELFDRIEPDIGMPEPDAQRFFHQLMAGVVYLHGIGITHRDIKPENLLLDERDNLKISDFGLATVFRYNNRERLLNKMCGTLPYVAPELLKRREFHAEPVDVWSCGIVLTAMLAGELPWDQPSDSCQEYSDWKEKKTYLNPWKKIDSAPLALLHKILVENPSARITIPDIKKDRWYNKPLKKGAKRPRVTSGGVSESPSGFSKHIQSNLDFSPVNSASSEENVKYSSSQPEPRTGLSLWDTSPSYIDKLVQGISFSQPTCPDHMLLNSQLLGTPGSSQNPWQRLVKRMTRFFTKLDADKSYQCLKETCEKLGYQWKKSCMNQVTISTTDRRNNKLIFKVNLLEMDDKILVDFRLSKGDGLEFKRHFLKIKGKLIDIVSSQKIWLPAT
Description: as §1, §2, §3

[15] = molecular target: AXL (Homo sapiens, UniProt P30530); test: Kinase panel; assay type: biochemical
Description: as §1, §2, §3

[16] = molecular target: FGFR1 (Homo sapiens, UniProt P11362); test: Kinase panel; assay type: biochemical
FGFR1, sequence (P11362 22-822, species assumed): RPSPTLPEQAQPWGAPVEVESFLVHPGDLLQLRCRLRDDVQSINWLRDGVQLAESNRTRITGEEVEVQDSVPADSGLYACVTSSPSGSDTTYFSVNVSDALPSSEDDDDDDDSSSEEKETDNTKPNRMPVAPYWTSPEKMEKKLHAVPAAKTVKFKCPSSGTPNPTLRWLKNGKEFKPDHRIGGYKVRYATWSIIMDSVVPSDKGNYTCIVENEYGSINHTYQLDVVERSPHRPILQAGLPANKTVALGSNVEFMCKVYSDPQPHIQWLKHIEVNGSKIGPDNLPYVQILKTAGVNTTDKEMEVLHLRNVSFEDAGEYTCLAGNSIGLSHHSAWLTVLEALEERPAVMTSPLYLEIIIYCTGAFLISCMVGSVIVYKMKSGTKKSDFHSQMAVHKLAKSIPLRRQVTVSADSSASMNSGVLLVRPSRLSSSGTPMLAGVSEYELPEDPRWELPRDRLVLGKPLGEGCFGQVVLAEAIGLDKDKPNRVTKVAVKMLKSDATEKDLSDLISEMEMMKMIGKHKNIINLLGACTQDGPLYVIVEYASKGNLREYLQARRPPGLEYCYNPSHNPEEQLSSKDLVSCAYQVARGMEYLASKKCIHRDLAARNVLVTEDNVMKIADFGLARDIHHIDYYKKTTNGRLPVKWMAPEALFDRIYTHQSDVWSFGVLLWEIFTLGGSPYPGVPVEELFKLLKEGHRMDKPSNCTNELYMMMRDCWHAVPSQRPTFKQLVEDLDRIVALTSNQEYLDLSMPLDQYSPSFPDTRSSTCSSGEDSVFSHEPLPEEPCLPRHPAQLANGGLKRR
Description: as §1, §2, §3

[17] = tested on: panel of 50 kinases; test: Kinase panel selectivity; assay type: biochemical; details: 1 μM
Description: To further evaluate potential off-target activity, compound 14c was screened against a panel of 50 kinases at a concentration of 1 μM. […] Inhibitor selectivity can be quantified using the selectivity score (S-score), which assumes that low inhibitory activity is clinically irrelevant. The S-score is calculated by dividing the number of kinases inhibited above a defined threshold by the total number of kinases tested. […] Further details on the selectivity data can be found in SI (Table S1). […]
as §1, §2, §3

Papp A→B ([1]; A–B direction): 54 nm/s
Papp B→A ([1]; B–A direction): 8 nm/s
efflux ratio ([1]; read-out: MDCK Ratio (Papp B–A/A–B)): 0.14
HLM in vitro intrinsic clearing [2]: 77 µL/min/mg
IC50 [3]: 7.18 nM
Kd [4]: > 1000 nM
inhibition at 1 µM [5]: 10%
inhibition at 1 µM [6]: 7%
inhibition at 1 µM [7]: -5%
inhibition at 1 µM [8]: 26%
inhibition at 1 µM [9]: 9%
% inhibition PDGFRB ([9]; 1 µM): 8%
inhibition at 1 µM [10]: 19%
inhibition at 1 µM [11]: 8%
inhibition at 1 µM [12]: 71%
inhibition at 1 µM [13]: 12%
inhibition at 1 µM [14]: 11%
inhibition at 1 µM [15]: 4%
inhibition at 1 µM [16]: 3%
Selectivity towards CSF1R in kinase panel (in words) [17]: high selectivity
SMILES: Cc1cccc(CN(C)c2ncnc3[nH]c(-c4ccc(NCc5ccc(C(F)(F)F)nc5)nc4)cc23)c1 [Compound 14c, N-Methyl-N-(3-methylbenzyl)-6-(6-(((6-(trifluoromethyl)pyridin-3-yl)methyl)amino)pyridin-3-yl)-7H-pyrrolo[2,3-d]pyrimidin-4-amine]
